The term IC50 denotes the concentration that gives 50% inhibition. What is called melting point is the temperature, or range, at which the solid turns liquid.

The subject of series [1] is BLT1 and BLT2 receptors (HL-60 cells). Description: Ca2+ flux assay for LTB4 antagonist assay (HL-60 FLIPR). The class given is cell-based, Human. As to conditions: Retinoic acid induced HL-60 cells, inhibition of LTB4-induced Ca2+ flux, 30 min preincubation; read-out: LTB4 antagonism (HL-60 FLIPR) IC50. The method, then: Ca^2+ Flux Assay for LTB4 Antagonist Assay
Human leukemia HL-60 cells endogenously expressing BLT1 and BLT2 receptors were cultured in RPMI-1640 medium supplemented with 20% fetal bovine serum, 2 mM glutamine, 100 U/mL penicillin and 100 ug/mL streptomycin.
Seventy two hours prior to experiment cells are counted using ViaCount reagent, centrifuged and resuspended at 2.0×10^5 cells/mL density with the complete growth media containing 1 μM Retinoic Acid (Sigma).
On a day of the experiment loading buffer (Calcium-3 Assay Kit, Molecular Devices) was prepared by dissolving the contents of one vial (Express Kit) into 500 mL Hank's Balanced Salt Solution containing 20 mM HEPES and 5 mM probenecid. Equal volume of the loading buffer was mixed with the replacement buffer (Hank's Balanced Salt Solution containing 20 mM HEPES, 0.05% BSA and 5 mM probenecid). Retinoic Acid induced HL-60 cells were counted using ViaCount reagent, centrifuged and resuspended at 2.0×10^6 cells/mL density with the loading buffer/replacement buffer, dispensed into 384 well black/clear microplates (Falcon)(25 μL/well) and placed in a 37° C./5% CO2 incubator for 1 hour.
During the incubation, test compounds were prepared at 6× the desired concentration in HBSS/20 mM HEPES/0.05% BSA as well as LTB4 (Biomol) was prepared at 2.2× concentration in HBSS/20 mM HEPES/0.5% BSA buffer.
After the incubation, both the cell and compound plates were brought to the FLIPR and 5 μL of the diluted compounds were transferred to the cell plates by the FLIPR. Plates were then incubated for 30 min at room temperature. After the ½ hour incubation, plates were returned to the FLIPR and 25 μL of 2.2×LTB4 was added to the cell plates. During the assay, fluorescence readings were taken simultaneously from all 384 wells of the cell plate every 1.5 seconds. Five readings were taken to establish a stable baseline, then 25 μL (LTB4) of sample was rapidly and simultaneously added to each well of the cell plate. The fluorescence was continuously monitored before, during and after sample addition for a total elapsed time of 100 seconds. Responses (increase in peak fluorescence) in each well following agonist addition was determined. The initial fluorescence reading from each well, prior to ligand stimulation, was used a zero baseline value for the data from that well. The responses are expressed as % inhibition of the neutral control (neural control: wells that received buffer plus DMSO but no test compound).

As to `CCS(=O)(=O)c1cc(OCCCCCCc2cccc(OCCCC(=O)O)c2CCC(=O)O)cc(-c2ccsc2)c1` [Example 52, 4-[2-(2-Carboxy-ethyl)-3-[6-(3-ethanesulfonyl-5-thiophen-3-yl-phenoxy)-hexyl]-phenoxy]-butyric Acid], the IC50 in series [1] stood at 1.04 nM.

Regarding `CS(=O)(=O)c1cc(Nc2ccccc2)cc(OCCCCCCc2cccc(OCCCC(=O)O)c2CCC(=O)O)c1` [Example 26, 4-{2-(2-Carboxy-ethyl)-3-[6-(3-methanesulfonyl-5-phenylamino-phenoxy)-hexyl]-phenoxy}-butyric Acid], the half-inhibitory concentration (IC50) in series [1] was 47.1 nM.

For `CCc1ccc(-c2cc(OCCCCCCc3cccc(OCCCC(=O)O)c3CCC(=O)O)cc(S(C)(=O)=O)c2)cc1` [Example 13, 4-{2-(2-Carboxy-ethyl)-3-[6-(4′-ethyl-5-methanesulfonyl-biphenyl-3-yloxy)-hexyl]-phenoxy}-butyric Acid], in series [1], the half-inhibitory concentration (IC50) worked out at 0.91 nM.

`CS(=O)(=O)c1cc(OCCCCCCc2cccc(OCCCC(=O)O)c2CCC(=O)O)cc(-c2ccccc2)c1` [Example 28, 4-{2-(2-Carboxy-ethyl)-3-[6-(5-methanesulfonyl-biphenyl-3-yloxy)-hexyl]-phenoxy}-butyric Acid]: the 50% inhibitory concentration (IC50) in series [1] came to 0.38 nM.

Take `CCS(=O)(=O)c1cc(OCCCCCCc2cccc(OCCCC(=O)O)c2CCC(=O)O)cc(-c2ccc(F)cc2)c1` [Example 51, 4-[2-(2-Carboxy-ethyl)-3-[6-(5-ethanesulfonyl-4′-fluoro-biphenyl-3-yloxy)-hexyl]-phenoxy]-butyric Acid]: the half-maximal inhibitory concentration (IC50) in series [1] is 2.8 nM.

With `CS(=O)(=O)c1cc(OCCCCCCc2cccc(OCCCC(=O)O)c2CCC(=O)O)cc(-c2cscn2)c1` [Example 21, 4-{2-(2-Carboxy-ethyl)-3-[6-(3-methanesulfonyl-5-thiazol-4-yl-phenoxy)-hexyl]-phenoxy}-butyric Acid], the IC50 in series [1] came to 261 nM.

As for `Cc1ccc(-c2cc(OCCCCCCc3cccc(OCCCC(=O)O)c3CCC(=O)O)cc(S(C)(=O)=O)c2)cc1F` [Example 11, 4-{2-(2-Carboxy-ethyl)-3-[6-(3′-fluoro-5-methanesulfonyl-4′-methyl-biphenyl-3-yloxy)-hexyl]-phenoxy}-butyric Acid], the half-inhibitory concentration (IC50) in series [1] was 0.32 nM.

With `CS(=O)(=O)c1cc(OCCCCCCc2cccc(OCCCC(=O)O)c2CCC(=O)O)cc(-c2ccc(F)cc2)c1` [Example 8, 4-{2-(2-Carboxy-ethyl)-3-[6-(4′-fluoro-5-methanesulfonyl-biphenyl-3-yloxy)-hexyl]-phenoxy}-butyric Acid], the concentration for half-maximal inhibition (IC50) in series [1] was determined as 0.38 nM.

For the molecule `CS(=O)(=O)c1cc(OCCCCCCc2cccc(OCCCC(=O)O)c2CCC(=O)O)cc(-c2ccsc2)c1` [Example 12, 4-{2-(2-Carboxy-ethyl)-3-[6-(3-methanesulfonyl-5-thiophen-3-yl-phenoxy)-hexyl]-phenoxy}-butyric Acid], the IC50 in series [1] was 0.44 nM.

For `CCCS(=O)(=O)c1cc(OCCCCCCc2cccc(OCCCC(=O)O)c2CCC(=O)O)cc(-c2ccc(F)cc2)c1` [Example 55, 4-[2-(2-Carboxy-ethyl)-3-[6-(5-(propane-1-sulfonyl)-4′-fluoro-biphenyl-3-yloxy)-hexyl]-phenoxy]-butyric Acid], the 50% inhibitory concentration (IC50) in series [1] worked out at 63.8 nM.

Regarding `CC(C)S(=O)(=O)c1cc(OCCCCCCc2cccc(OCCCC(=O)O)c2CCC(=O)O)cc(-c2ccc(F)cc2)c1` [Example 60, 4-[2-(2-Carboxy-ethyl)-3-[6-(5-(propane-2-sulfonyl)-4′-fluoro-biphenyl-3-yloxy)-hexyl]-phenoxy]-butyric Acid], the 50% inhibitory concentration (IC50) in series [1] was determined as 15.3 nM.

Turning to `CCS(=O)(=O)c1cc(OCCCCCCc2cccc(OCCCC(=O)O)c2CCC(=O)O)cc(-c2ccc3c(c2)OCO3)c1` [Example 47, 4-[3-[6-(3-Benzo[1,3]dioxol-5-yl-5-ethanesulfonyl-phenoxy)-hexyl]-2-(2-carboxy-ethyl)-phenoxy]-butyric Acid], the melting point is 134 to 135 °C. In addition, the concentration for half-maximal inhibition (IC50) in series [1] stood at 0.27 nM.

With `CS(=O)(=O)c1cc(OCCCCCCc2cccc(OCCCC(=O)O)c2CCC(=O)O)cc(-c2cccc(F)c2)c1` [Example 27, 4-{2-(2-Carboxy-ethyl)-3-[6-(3′-fluoro-5-methanesulfonyl-biphenyl-3-yloxy)-hexyl]-phenoxy}-butyric Acid], the IC50 in series [1] amounted to 0.9 nM.

Take `CS(=O)(=O)c1cc(OCCCCCCc2cccc(OCCCC(=O)O)c2CCC(=O)O)cc(-c2ccc3c(c2)OCO3)c1` [Example 40, 4-[3-[6-(3-Benzo[1,3]dioxol-5-yl-5-methanesulfonyl-phenoxy)-hexyl]-2-(2-carboxy-ethyl)-phenoxy]-butyric Acid]: the IC50 in series [1] was 0.09 nM.

As to `CS(=O)(=O)c1cc(OCCCCCCc2cccc(OCCCC(=O)O)c2CCC(=O)O)cc(-c2ccc(O)cc2)c1` [Example 5, 4-{2-(2-Carboxy-ethyl)-3-[6-(4′-hydroxy-5-methanesulfonyl-biphenyl-3-yloxy)-hexyl]-phenoxy}-butyric Acid], the IC50 in series [1] was 1.22 nM.

Turning to `CS(=O)(=O)c1cc(OCCCCCCc2cccc(OCCCC(=O)O)c2CCC(=O)O)cc(-c2ccc3c(c2)OCCO3)c1` [Example 41, 4-(2-(2-Carboxy-ethyl)-3-{6-[3-(2,3-dihydro-benzo[1,4]dioxin-6-yl)-5-methanesulfonyl-phenoxy]-hexyl}-phenoxy)-butyric Acid], the IC50 in series [1] is 0.47 nM.

As to `CS(=O)(=O)c1cc(OCCCCCCc2cccc(OCCCC(=O)O)c2CCC(=O)O)cc(-c2ccc3c(c2)OC(F)(F)O3)c1` [Example 46, 4-(2-(2-Carboxy-ethyl)-3-{6-[3-(2,2-difluoro-benzo[1,3]dioxol-5-yl)-5-methanesulfonyl-phenoxy]-hexyl}-phenoxy)-butyric Acid], the 50% inhibitory concentration (IC50) in series [1] came to 0.24 nM.

Turning to `CS(=O)(=O)c1cc(OCCCCCCc2cccc(OCCCC(=O)O)c2CCC(=O)O)cc(-c2ccc3scnc3c2)c1` [Example 45, 4-[3-[6-(3-Benzothiazol-5-yl-5-methanesulfonyl-phenoxy)-hexyl]-2-(2-carboxy-ethyl)-phenoxy]-butyric Acid], the IC50 in series [1] is 0.2 nM.

Turning to `CS(=O)(=O)c1cc(OCCCCCCc2cccc(OCCCC(=O)O)c2CCC(=O)O)cc(Oc2ccc(Cl)cc2)c1` [Example 23, 4-(2-(2-Carboxy-ethyl)-3-{6-[3-(4-chloro-phenoxy)-5-methanesulfonyl-phenoxy]-hexyl}-phenoxy)-butyric Acid], the 50% inhibitory concentration (IC50) in series [1] came to 361 nM.

With `COc1ccc(-c2cc(OCCCCCCc3cccc(OCCCC(=O)O)c3CCC(=O)O)cc(S(C)(=O)=O)c2)cc1` [Example 29, 4-{2-(2-Carboxy-ethyl)-3-[6-(5-methanesulfonyl-4′-methoxy-biphenyl-3-yloxy)-hexyl]-phenoxy}-butyric Acid], the IC50 in series [1] came to 0.12 nM.

The record behind these values is patent US8093253B2, “Leukotriene B4 inhibitors” (Hoffmann-La Roche Inc., priority 2008, dated 2012).
